Source: patent US9163021B2, “Pyrrolo[3,2-c]pyridine tropomyosin-related kinase inhibitors” (Pfizer Limited, priority 2012, dated 2015)

Molecular target: TRKA (Homo sapiens (Human), UniProt P04629)
Assay: Isolated TRK enzyme assay (HTRF KinEASE-TK), PV3144 TrkA enzyme assay
Format: biochemical
Settings: arithmetic mean where more than one reading
Summary of the method: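 Kinase (recombinant His-TrkA cytoplasmic domain, ATP-preactivated 20 min) met compound 20 min, then biotinylated TK substrate (1 µM final) with Mg2+/DTT buffer; HTRF detection.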

TRKA, sequence (P04629 441-796): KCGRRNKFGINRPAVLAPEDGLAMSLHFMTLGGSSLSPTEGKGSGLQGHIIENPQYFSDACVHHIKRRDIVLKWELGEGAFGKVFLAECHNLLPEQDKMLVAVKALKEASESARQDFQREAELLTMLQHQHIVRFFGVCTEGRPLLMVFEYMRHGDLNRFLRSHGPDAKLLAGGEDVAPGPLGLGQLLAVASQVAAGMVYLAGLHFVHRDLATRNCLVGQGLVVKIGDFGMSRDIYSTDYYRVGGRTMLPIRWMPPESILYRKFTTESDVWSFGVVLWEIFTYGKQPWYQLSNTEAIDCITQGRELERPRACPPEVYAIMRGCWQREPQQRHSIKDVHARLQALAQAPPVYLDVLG

SMILES	IC50 [nM]
CC(C)n1cc(C(=O)c2cc(NC(=O)Cn3cc(C(F)(F)F)cn3)ccn2)c2cnccc21 [Example 30, N-(2-{[1-(propan-2-yl)-1H-pyrrolo[3,2-c]pyridin-3-yl]carbonyl}pyridin-4-yl)-2[4-(trifluoromethyl)-1H-pyrazol-1-yl]acetamide]	13.3
O=C(Cc1ccc(F)cn1)Nc1cc(C(=O)c2cn(C3COC3)c3ccncc23)ccn1 [Example 196, 2-(5-fluoropyridin-2-yl)-N-(4-{[1-(oxetan-3-yl)-1H-pyrrolo[3,2-c]pyridin-3-yl]carbonyl}pyridin-2-yl)acetamide]	1280
CC(CO)n1cc(C(=O)c2cncc(NC(=O)Cc3cccc(C(F)(F)F)c3)c2)c2cnccc21 (single isomer, unassigned) [Example 34, N-(5-{[1-(1-hydroxypropan-2-yl)-1H-pyrrolo[3,2-c]pyridin-3-yl]carbonyl}pyridin-3-yl)-2-[3-(trifluoromethyl)phenyl]acetamide]	17.1
O=C(Cc1ccc(Cl)cc1)Nc1cc(C(=O)c2cn(CCO)c3ccncc23)ccn1 [Example 146, 2-(4-chlorophenyl)-N-(4-{[1-(2-hydroxyethyl)-1H-pyrrolo[3,2-c]pyridin-3-yl]carbonyl}pyridin-2-yl)acetamide]	59.4
Cn1nc(C(C)(C)C)nc1CC(=O)Nc1cc(C(=O)c2cn(CCO)c3ccncc23)ccn1 [Example 154, 2-(3-tert-butyl-1-methyl-1H-1,2,4-triazol-5-yl)-N-(4-{[1-(2-hydroxyethyl)-1H-pyrrolo[3,2-c]pyridin-3-yl]carbonyl}pyridin-2-yl)acetamide]	1100
CC(CO)n1cc(C(=O)c2cncc(NC(=O)Cn3cc(C4CC4)nn3)c2)c2cncc(F)c21 (single isomer, unassigned) [Example 207, 2-(4-cyclopropyl-1H-1,2,3-triazol-1-yl)-N-(5-{[7-fluoro-1-(1-hydroxypropan-2-yl)-1H-pyrrolo[3,2-c]pyridin-3-yl]carbonyl}pyridin-3-yl)acetamide]	179
CC(CO)n1cc(C(=O)c2cncc(NC(=O)Cc3ccc(F)cn3)c2)c2cnccc21 (single isomer, unassigned) [Example 68, 2-(5-fluoropyridin-2-yl)-N-(5-{[1-(1-hydroxypropan-2-yl)-1H-pyrrolo[3,2-c]pyridin-3-yl]carbonyl}pyridin-3-yl)acetamide]	201
CC(C)(CO)n1cc(C(=O)c2cc(NC(=O)Cn3ccc(C(F)(F)F)n3)ccn2)c2cnccc21 [Example 10, N-(2-{[1-(1-hydroxy-2-methylpropan-2-yl)-1H-pyrrolo[3,2-c]pyridin-3-yl]carbonyl}pyridin-4-yl)-2-[3-(trifluoromethyl)-1H-pyrazol-1-yl]acetamide]	14
CC(C)n1cc(C(=O)c2cc(NC(=O)Cn3ccc(C(F)(F)F)n3)ccn2)c2cnccc21 [Example 27, N-(2-{[1-(propan-2-yl)-1H-pyrrolo[3,2-c]pyridin-3-yl]carbonyl}pyridin-4-yl)-2[3-(trifluoromethyl)-1H-pyrazol-1-yl]acetamide]	89.7
CC(CO)n1cc(C(=O)c2cncc(NC(=O)Cc3ccc(F)cn3)c2)c2cncc(F)c21 (single isomer, unassigned) [Example 218, N-(5-{[7-fluoro-1-(1-hydroxypropan-2-yl)-1H-pyrrolo[3,2-c]pyridin-3-yl]carbonyl}pyridin-3-yl)-2-(5-fluoropyridin-2-yl)acetamide]	425
CC(C)n1cc(C(=O)c2ccnc(NC(=O)c3cccc(OC(F)(F)F)c3)c2)c2cnccc21 [Example 173, N-(4-{[1-(propan-2-yl)-1H-pyrrolo[3,2-c]pyridin-3-yl]carbonyl}pyridin-2-yl)-3-(trifluoromethoxy)-benzamide]	3.85
CC(C)(O)Cc1cccc(CC(=O)Nc2cc(C(=O)c3cn(CCO)c4ccncc34)ccn2)c1 [Example 151, N-(4-{[1-(2-hydroxyethyl)-1H-pyrrolo[3,2-c]pyridin-3-yl]carbonyl}pyridin-2-yl)-2-[3-(2-hydroxy-2-methylpropyl)phenyl]acetamide]	408
CC(C)n1cc(C(=O)c2ccnc(NC(=O)Cc3coc(C4CC4)n3)c2)c2cnccc21 [Example 189, 2-(2-cyclopropyl-1,3-oxazol-4-yl)-N-(4-{[1-(propan-2-yl)-1H-pyrrolo[3,2-c]pyridin-3-yl]carbonyl}pyridin-2-yl)acetamide]	13.6
N#Cc1ccc(CC(=O)Nc2cc(C(=O)c3cn(C4COC4)c4ccncc34)ccn2)cc1 [Example 195, 2-(4-cyanophenyl)-N-(4-{[1-(oxetan-3-yl)-1H-pyrrolo[3,2-c]pyridin-3-yl]carbonyl}pyridin-2-yl)acetamide]	203

Further molecules by falling IC50, results first:

IC50 [nM]	SMILES
9800	CC(C)n1cc(C(=O)c2ccnc(NC(=O)Cc3nnnn3C)c2)c2cnccc21 [Example 192, 2-(1-methyl-1H-tetrazol-5-yl)-N-(4-{[1-(propan-2-yl)-1H-pyrrolo[3,2-c]pyridin-3-yl]carbonyl}pyridin-2-yl)acetamide]
904	COCc1cn(CC(=O)Nc2cc(C(=O)c3cn(C(C)C)c4ccncc34)ccn2)nn1 [Example 176]
252	CC(CO)n1cc(C(=O)c2cncc(NC(=O)Cc3ccc(C#N)cc3)c2)c2cncc(F)c21 (single isomer, unassigned) [Example 213, 2-(4-cyanophenyl)-N-(5-{[7-fluoro-1-(1-hydroxypropan-2-yl)-1H-pyrrolo[3,2-c]pyridin-3-yl]carbonyl}pyridin-3-yl)acetamide]
200	CC(CO)n1cc(C(=O)c2cc(NC(=O)Cc3cccc(C(F)(F)F)c3)ccn2)c2cnccc21 (single isomer, unassigned) [Example 229, N-(2-{[1-(1-hydroxypropan-2-yl)-1H-pyrrolo[3,2-c]pyridin-3-yl]carbonyl}pyridin-4-yl)-2-[3-(trifluoromethyl)phenyl]acetamide]
180	CC(C)n1cc(C(=O)c2cncc(NC(=O)Cc3ccc(C#N)cc3)c2)c2cnccc21 [Example 49, 2-(4-cyanophenyl)-N-(5-{[1-(propan-2-yl)-1H-pyrrolo[3,2-c]pyridin-3-yl]carbonyl}pyridin-3-yl)acetamide]
176	CC(C)n1cc(C(=O)c2cc(NC(=O)Cc3ccc(C#N)cc3)ccn2)c2cnccc21 [Example 54, 2-(4-cyanophenyl)-N-(2-{[1-(propan-2-yl)-1H-pyrrolo[3,2-c]pyridin-3-yl]carbonyl}pyridin-4-yl)acetamide]
161	CC(C)n1cc(C(=O)c2cncc(NC(=O)Cc3ccccc3)c2)c2cnccc21 [Example 130, 2-phenyl-N-(5-{[1-(propan-2-yl)-1H-pyrrolo[3,2-c]pyridin-3-yl]carbonyl}pyridin-3-yl)acetamide]
105	CC(C)n1ncc(CC(=O)Nc2cncc(C(=O)c3cn(C(C)CO)c4ccncc34)c2)c1C(F)(F)F (single isomer, unassigned) [Example 64, N-(5-{[1-(1-hydroxypropan-2-yl)-1H-pyrrolo[3,2-c]pyridin-3-yl]carbonyl}pyridin-3-yl)-2-[1-(propan-2-yl)-5-(trifluoromethyl)-1H-pyrazol-4-yl]acetamide]
93.2	CC(CO)n1cc(C(=O)c2cc(NC(=O)Cc3ccc(Cl)cn3)ccn2)c2cnccc21 (single isomer, unassigned) [Example 86, 2-(5-chloropyridin-2-yl)-N-(2-{[1-(1-hydroxypropan-2-yl)-1H-pyrrolo[3,2-c]pyridin-3-yl]carbonyl}pyridin-4-yl)acetamide]
33.7	Cc1cc(C(F)(F)F)nn1CC(=O)Nc1cncc(C(=O)c2cn(C(C)CO)c3ccncc23)c1 (single isomer, unassigned) [Example 77, N-(5-{[1-(1-hydroxypropan-2-yl)-1H-pyrrolo[3,2-c]pyridin-3-yl]carbonyl}pyridin-3-yl)-2-[5-methyl-3-(trifluoromethyl)-1H-pyrazol-1-yl]acetamide]
29	CC(C)n1cc(C(=O)c2cncc(NC(=O)Cn3cc(C(F)(F)F)nn3)c2)c2cncc(F)c21 [Example 87, N-(5-{[7-fluoro-1-(propan-2-yl)-1H-pyrrolo[3,2-c]pyridin-3-yl]carbonyl}pyridin-3-yl)-2-[4-(trifluoromethyl)-1H-1,2,3-triazol-1-yl]acetamide]
20.7	CC(CO)n1cc(C(=O)c2cncc(NC(=O)Cc3ccc(Cl)cc3)c2)c2cncc(F)c21 (single isomer, unassigned) [Example 206, 2-(4-chlorophenyl)-N-(5-{[7-fluoro-1-(1-hydroxypropan-2-yl)-1H-pyrrolo[3,2-c]pyridin-3-yl]carbonyl}pyridin-3-yl)acetamide]
15.2	CC(C)n1cc(C(=O)c2ccnc(NC(=O)Cc3ccc(Cl)cc3)c2)c2cnccc21 [Example 103, 2-(4-chlorophenyl)-N-(4-{[1-(propan-2-yl)-1H-pyrrolo[3,2-c]pyridin-3-yl]carbonyl}pyridin-2yl)acetamide]
13.8	O=C(Cc1cccc(OC(F)(F)F)c1)Nc1cc(C(=O)c2cn(C3COC3)c3ccncc23)ccn1 [Example 194, N-(4-{[1-(oxetan-3-yl)-1H-pyrrolo[3,2-c]pyridin-3-yl]carbonyl}pyridin-2-yl)-2-[3-(trifluoromethoxy)phenyl]acetamide]
13.8	Cc1cc(C(F)(F)F)nn1CC(=O)Nc1cc(C(=O)c2cn(C(C)C)c3ccncc23)ccn1 [Example 104, 2-[5-methyl-3-(trifluoromethyl)-1H-pyrazol-1-yl]-N-(4-{[1-(propan-2-yl)-1H-pyrrolo[3,2-c]pyridin-3-yl]carbonyl}pyridin-2-yl)acetamide]
11.4	Cc1cc(C(F)(F)F)nn1CC(=O)Nc1cncc(C(=O)c2cn(C(C)C)c3c(F)cncc23)c1 [Example 32, N-(5-{[7-fluoro-1-(propan-2-yl)-1H-pyrrolo[3,2-c]pyridin-3-yl]carbonyl}pyridin-3-yl)-2-[5-methyl-3-(trifluoromethyl)-1H-pyrazol-1-yl]acetamide]
11.3	CC(C)n1cc(C(=O)c2cncc(NC(=O)Cc3ccc(Cl)cc3)c2)c2cnccc21 [Example 116, 2-(4-chlorophenyl)-N-(5-{[1-(propan-2-yl)-1H-pyrrolo[3,2-c]pyridin-3-yl]carbonyl}pyridin-3-yl)acetamide]
